Laboratory results: patent publication US10358434B2, “2-(3-pyridinyl)-1H-benzimidazole derivative compound and medicament containing same” (NIHON MEDI-PHYSICS CO., LTD., priority 2014, dated 2019)

Assays:
[1] = Plasma stability evaluation (TLC analysis); type: in vitro ADME; conditions: 37° C., 60 minutes, TLC analysis
How it was run: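 Radiolabelled compounds were incubated in heparin-treated pooled normal human plasma at 37° C for 60 minutes. After methanol deproteinization and centrifugation, stability was assessed by TLC under the conditions used for each compound's synthesis.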

[2] = In vivo kinetics experiment (radioactivity distribution); design: species or system Wistar male rat; conditions: rat i.v., mean ± SD
How it was run: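 Male Wistar rats (9 weeks) under isoflurane received approximately 1 to 3.7 MBq radiotracer in saline with 1 w/v % ascorbic acid by tail-vein injection. At 10, 30 and 60 min, rats were exsanguinated; blood, organs and remaining body weighed and counted, giving % ID/g and adrenal-to-tissue ratios.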

[3] = system: human adrenal gland section expressing aldosterone-producing adenoma; assay: In vitro autoradiography using human adrenal adenoma; type: binding; conditions: section of FIG. 17(b)
How it was run: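 Frozen 7-μm sections of human adrenal bearing aldosterone-producing adenoma were immersed 10 min in radioligand (5-33 kBq/mL) in PBS with 1% fatty-acid-free BSA, washed, then exposed to imaging plates for 16-20 h. Equal-area ROI PSL in adenoma (B2) versus normal cortex (B1) gave B2/B1, corrected for nuclide half-life, added activity and exposure time.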

**Q.** Which “Radiochemical purity after incubation in human plasma” value [1] does the source give for `FCCn1c(-c2cncc(Cn3ccnc3)c2)nc2ccc([123I])cc21` [[^123I] 604, 1-(2-Fluoroethyl)-2-[5-{(imidazol-1-yl)methyl}pyridin-3-yl]-6-[^123I]iodobenzimidazole] here?
**A.** 85%

**Q.** What about the “Adrenal gland/blood ratio of radioactivity accumulation” value (“Adrenal gland/blood ratio” for short) ([2]; 10 min after administration) of the same compound?
**A.** 75.41 ± 30.78

**Q.** What about the “Adrenal gland/fat ratio of radioactivity accumulation” value (from here on “Adrenal gland/fat ratio”) ([2]; 10 min after administration) of the same compound?
**A.** 92.23 ± 49.88

**Q.** What about the “Adrenal gland/kidney ratio of radioactivity accumulation” value (“Adrenal gland/kidney ratio” below) ([2]; 10 min after administration) of the same compound?
**A.** 4.89 ± 2.15

**Q.** What about the “Adrenal gland/liver ratio of radioactivity accumulation” value (from here on “Adrenal gland/liver ratio”) ([2]; 10 min after administration) of the same compound?
**A.** 2.48 ± 1.00

**Q.** What about the “Adrenal gland/muscle ratio of radioactivity accumulation” value (from here on “Adrenal gland/muscle ratio”) ([2]; 10 min after administration) of the same compound?
**A.** 67.00 ± 51.23

**Q.** And the “Adrenal gland/small intestine ratio of radioactivity accumulation” value (shortened to “Adrenal gland/small intestine ratio”) ([2]; 10 min after administration)?
**A.** 7.85 ± 3.21

**Q.** And the “Radioactivity distribution Adrenal gland” value ([2]; 10 min after administration)?
**A.** 10.24 ± 4.48 % ID/g

**Q.** And the “Radioactivity distribution Bladder (including urine)” value (“Radioactivity distribution Bladder” for short) ([2]; 10 min after administration)?
**A.** 0.43 ± 0.13 % ID/g

**Q.** And the “Radioactivity distribution Blood” value ([2]; 10 min after administration)?
**A.** 0.13 ± 0.01 % ID/g

**Q.** And the “Radioactivity distribution Fat” value ([2]; 10 min after administration)?
**A.** 0.11 ± 0.01 % ID/g

**Q.** And the “Radioactivity distribution Femur” value ([2]; 10 min after administration)?
**A.** 0.85 ± 0.40 % ID/g

**Q.** What about the “Radioactivity distribution Heart” value ([2]; 10 min after administration) of the same compound?
**A.** 0.65 ± 0.09 % ID/g

**Q.** What about the “Radioactivity distribution Kidney” value ([2]; 10 min after administration) of the same compound?
**A.** 2.09 ± 0.09 % ID/g

**Q.** And the “Radioactivity distribution Large intestine” value ([2]; 10 min after administration)?
**A.** 0.11 ± 0.01 % ID/g

**Q.** What about the “Radioactivity distribution Liver” value ([2]; 10 min after administration) of the same compound?
**A.** 4.09 ± 0.45 % ID/g

**Q.** And the “Radioactivity distribution Lung” value ([2]; 10 min after administration)?
**A.** 0.98 ± 0.16 % ID/g

**Q.** And the “Radioactivity distribution Muscle (lower limbs)” value ([2]; 10 min after administration)?
**A.** 0.18 ± 0.05 % ID/g

**Q.** And the “Radioactivity distribution Remaining whole body” value ([2]; 10 min after administration)?
**A.** 0.24 ± 0.01 % ID/g

**Q.** What about the “Radioactivity distribution Small intestine” value ([2]; 10 min after administration) of the same compound?
**A.** 1.29 ± 0.12 % ID/g

**Q.** And the “Radioactivity distribution Spleen” value ([2]; 10 min after administration)?
**A.** 5.59 ± 1.78 % ID/g

**Q.** And the “Radioactivity distribution Stomach” value ([2]; 10 min after administration)?
**A.** 0.66 ± 0.34 % ID/g

**Q.** And the “Radioactivity distribution Testis” value ([2]; 10 min after administration)?
**A.** 0.04 ± 0.01 % ID/g

**Q.** What about the “Radioactivity distribution Whole brain” value ([2]; 10 min after administration) of the same compound?
**A.** 0.01 ± 0.00 % ID/g

**Q.** And the “Adrenal gland/blood ratio” value ([2]; 30 min after administration)?
**A.** 170.18 ± 126.19

**Q.** And the “Adrenal gland/fat ratio” value ([2]; 30 min after administration)?
**A.** 156.19 ± 135.29

**Q.** What about the “Adrenal gland/kidney ratio” value ([2]; 30 min after administration) of the same compound?
**A.** 9.69 ± 6.36

**Q.** And the “Adrenal gland/liver ratio” value ([2]; 30 min after administration)?
**A.** 8.55 ± 5.73

**Q.** And the “Adrenal gland/muscle ratio” value ([2]; 30 min after administration)?
**A.** 100.20 ± 67.99

**Q.** What about the “Adrenal gland/small intestine ratio” value ([2]; 30 min after administration) of the same compound?
**A.** 4.37 ± 1.61

**Q.** And the “Radioactivity distribution Adrenal gland” value ([2]; 30 min after administration)?
**A.** 15.46 ± 8.64 % ID/g

**Q.** And the “Radioactivity distribution Bladder” value ([2]; 30 min after administration)?
**A.** 1.13 ± 0.19 % ID/g

**Q.** And the “Radioactivity distribution Blood” value ([2]; 30 min after administration)?
**A.** 0.10 ± 0.02 % ID/g

**Q.** What about the “Radioactivity distribution Fat” value ([2]; 30 min after administration) of the same compound?
**A.** 0.12 ± 0.03 % ID/g

**Q.** What about the “Radioactivity distribution Femur” value ([2]; 30 min after administration) of the same compound?
**A.** 0.83 ± 0.03 % ID/g

**Q.** And the “Radioactivity distribution Heart” value ([2]; 30 min after administration)?
**A.** 0.64 ± 0.04 % ID/g

**Q.** What about the “Radioactivity distribution Kidney” value ([2]; 30 min after administration) of the same compound?
**A.** 1.65 ± 0.27 % ID/g

**Q.** And the “Radioactivity distribution Large intestine” value ([2]; 30 min after administration)?
**A.** 0.14 ± 0.02 % ID/g

**Q.** What about the “Radioactivity distribution Liver” value ([2]; 30 min after administration) of the same compound?
**A.** 1.89 ± 0.21 % ID/g

**Q.** What about the “Radioactivity distribution Lung” value ([2]; 30 min after administration) of the same compound?
**A.** 0.97 ± 0.10 % ID/g

**Q.** What about the “Radioactivity distribution Muscle (lower limbs)” value ([2]; 30 min after administration) of the same compound?
**A.** 0.16 ± 0.02 % ID/g

**Q.** What about the “Radioactivity distribution Remaining whole body” value ([2]; 30 min after administration) of the same compound?
**A.** 0.27 ± 0.01 % ID/g

**Q.** What about the “Radioactivity distribution Small intestine” value ([2]; 30 min after administration) of the same compound?
**A.** 3.40 ± 0.80 % ID/g

**Q.** What about the “Radioactivity distribution Spleen” value ([2]; 30 min after administration) of the same compound?
**A.** 6.71 ± 0.48 % ID/g

**Q.** What about the “Radioactivity distribution Stomach” value ([2]; 30 min after administration) of the same compound?
**A.** 0.61 ± 0.14 % ID/g

**Q.** And the “Radioactivity distribution Testis” value ([2]; 30 min after administration)?
**A.** 0.05 ± 0.01 % ID/g

**Q.** And the “Radioactivity distribution Whole brain” value ([2]; 30 min after administration)?
**A.** 0.01 ± 0.00 % ID/g

**Q.** What about the “Adrenal gland/blood ratio” value ([2]; 60 min after administration) of the same compound?
**A.** 329.57 ± 56.14

**Q.** And the “Adrenal gland/fat ratio” value ([2]; 60 min after administration)?
**A.** 161.46 ± 40.00

**Q.** What about the “Adrenal gland/kidney ratio” value ([2]; 60 min after administration) of the same compound?
**A.** 15.22 ± 1.37

**Q.** And the “Adrenal gland/liver ratio” value ([2]; 60 min after administration)?
**A.** 19.61 ± 2.12

**Q.** What about the “Adrenal gland/muscle ratio” value ([2]; 60 min after administration) of the same compound?
**A.** 130.19 ± 7.34

**Q.** What about the “Adrenal gland/small intestine ratio” value ([2]; 60 min after administration) of the same compound?
**A.** 5.02 ± 1.64

**Q.** What about the “Radioactivity distribution Adrenal gland” value ([2]; 60 min after administration) of the same compound?
**A.** 18.65 ± 1.67 % ID/g

**Q.** And the “Radioactivity distribution Bladder” value ([2]; 60 min after administration)?
**A.** 3.04 ± 1.32 % ID/g

**Q.** What about the “Radioactivity distribution Blood” value ([2]; 60 min after administration) of the same compound?
**A.** 0.06 ± 0.01 % ID/g

**Q.** What about the “Radioactivity distribution Fat” value ([2]; 60 min after administration) of the same compound?
**A.** 0.12 ± 0.04 % ID/g

**Q.** And the “Radioactivity distribution Femur” value ([2]; 60 min after administration)?
**A.** 0.90 ± 0.10 % ID/g

**Q.** What about the “Radioactivity distribution Heart” value ([2]; 60 min after administration) of the same compound?
**A.** 0.56 ± 0.01 % ID/g

**Q.** And the “Radioactivity distribution Kidney” value ([2]; 60 min after administration)?
**A.** 1.23 ± 0.01 % ID/g

**Q.** What about the “Radioactivity distribution Large intestine” value ([2]; 60 min after administration) of the same compound?
**A.** 0.55 ± 0.52 % ID/g

**Q.** What about the “Radioactivity distribution Liver” value ([2]; 60 min after administration) of the same compound?
**A.** 0.96 ± 0.10 % ID/g

**Q.** What about the “Radioactivity distribution Lung” value ([2]; 60 min after administration) of the same compound?
**A.** 0.78 ± 0.03 % ID/g

**Q.** And the “Radioactivity distribution Muscle (lower limbs)” value ([2]; 60 min after administration)?
**A.** 0.14 ± 0.01 % ID/g

**Q.** What about the “Radioactivity distribution Remaining whole body” value ([2]; 60 min after administration) of the same compound?
**A.** 0.28 ± 0.04 % ID/g

**Q.** What about the “Radioactivity distribution Small intestine” value ([2]; 60 min after administration) of the same compound?
**A.** 3.98 ± 1.32 % ID/g

**Q.** What about the “Radioactivity distribution Spleen” value ([2]; 60 min after administration) of the same compound?
**A.** 5.62 ± 1.11 % ID/g

**Q.** And the “Radioactivity distribution Stomach” value ([2]; 60 min after administration)?
**A.** 0.89 ± 0.21 % ID/g

**Q.** What about the “Radioactivity distribution Testis” value ([2]; 60 min after administration) of the same compound?
**A.** 0.05 ± 0.01 % ID/g

**Q.** What about the “Radioactivity distribution Whole brain” value ([2]; 60 min after administration) of the same compound?
**A.** 0.01 ± 0.00 % ID/g

**Q.** And the B2/B1 accumulation ratio [3]?
**A.** 1.93

**Q.** And the “B2 (PSL value, aldosterone-producing adenoma)” value ([3]; site 71b)?
**A.** 3493

**Q.** And the “B1 (PSL value, normal adrenal cortex)” value ([3]; site 72b)?
**A.** 1813
